Like-named read-outs stand apart in the source and are kept apart here.
Key:
MRSA isolates = test: MIC/MBC, CLSI broth microdilution, MRSA isolates; type: cell-based, Staphylococcus aureus; settings: Staphylococcus aureus
[1] = pH and Ka of 10-g/L aqueous solutions (pH meter); type: physicochemical; settings: 10-g/L solution in distilled, deionized water, room temperature
MRSA isolate TCH 1516 = test: Resistance acquisition during serial passage; type: cell-based, Staphylococcus aureus
Description: MRSA isolate TCH 1516 was grown to the stationary phase (OD650 = 1.0) in 10 mL of MH broth. […] The second highest drug concentration resulting in bacterial growth (OD650 >1.0) was used as the inoculum after a 1:1,000 dilution for subsequent steps, every 24 hours, for up to 21 days.

[2] = MRSA, 39 evaluated MRSA isolates, CLSI broth microdilution
[3] = MRSA, pH 7.4, MRSA 0606, pH 7.4
[4] = MRSA, pH 7.4, MRSA 0608, pH 7.4
[5] = MRSA, pH 7.4, MRSA 0634, pH 7.4
[6] = MRSA, pH 7.4, MRSA 0641, pH 7.4
[7] = MRSA, pH 7.4, MRSA 0646, pH 7.4
[8] = MRSA, read-out: MBC90, 39 evaluated MRSA isolates, CLSI broth microdilution
[9] = MRSA, pH 5.5, MRSA 0606, pH 5.5
[10] = MRSA, pH 5.5, MRSA 0608, pH 5.5
[11] = MRSA, pH 5.5, MRSA 0634, pH 5.5
[12] = MRSA, pH 5.5, MRSA 0641, pH 5.5
[13] = MRSA, pH 5.5, MRSA 0646, pH 5.5
[14] = MRSA, pH 6.5, MRSA 0606, pH 6.5
[15] = MRSA, pH 6.5, MRSA 0608, pH 6.5
[16] = MRSA, pH 6.5, MRSA 0634, pH 6.5
[17] = MRSA, pH 6.5, MRSA 0641, pH 6.5
[18] = MRSA, pH 6.5, MRSA 0646, pH 6.5

[K+].[K+].[O-]c1c(Cl)cc(Cl)cc1-c1cc(Cl)cc(Cl)c1[O-] [C59K]
6 µg/mL: MBC (MRSA isolates; [3]) | MBC (MRSA isolates; [5])
greater than 10: pH of solution [1]
2 µg/mL: MIC90 (MRSA isolates; [2]) | MIC (MRSA isolates; [3]) | MIC (MRSA isolates; [5]) | MIC (MRSA isolates; [6]) | MIC (MRSA isolates; [7]) | MIC (MRSA isolates; MRSA, pH 7.4, TCH 1516, pH 7.4)
4 µg/mL: MBC (MRSA isolates; [4]) | MIC (MRSA isolates; [4]) | MBC (MRSA isolates; [6]) | MBC (MRSA isolates; [7]) | MBC (MRSA isolates; MRSA, pH 7.4, TCH 1516, pH 7.4) | MBC (MRSA isolates; [8])

[Li+].[Li+].[O-]c1c(Cl)cc(Cl)cc1-c1cc(Cl)cc(Cl)c1[O-] [C59Li]
0.25 µg/mL: MBC (MRSA isolates; [9]) | MIC (MRSA isolates; [9]) | MBC (MRSA isolates; [10]) | MIC (MRSA isolates; [10]) | MBC (MRSA isolates; [11]) | MIC (MRSA isolates; [11]) | MBC (MRSA isolates; [12]) | MIC (MRSA isolates; [12]) | MBC (MRSA isolates; [13]) | MIC (MRSA isolates; [13]) | MBC (MRSA isolates; MRSA, pH 5.5, TCH 1516, pH 5.5) | MIC (MRSA isolates; MRSA, pH 5.5, TCH 1516, pH 5.5) | MBC (MRSA isolates; MRSA, pH 5.5, read-out: Average MBC, average of six MRSA isolates, pH 5.5) | MIC (MRSA isolates; MRSA, pH 5.5, read-out: Average MIC, average of six MRSA isolates, pH 5.5)
1 µg/mL: MBC (MRSA isolates; [14]) | MIC (MRSA isolates; [14]) | MIC (MRSA isolates; [15]) | MBC (MRSA isolates; [16]) | MIC (MRSA isolates; [16]) | MBC (MRSA isolates; [18]) | MBC (MRSA isolates; MRSA, pH 6.5, TCH 1516, pH 6.5) | MIC (MRSA isolates; MRSA, pH 6.5, TCH 1516, pH 6.5) | MIC (MRSA isolates; [3]) | MIC (MRSA isolates; [7])
1.7 µg/mL: MIC (MRSA isolates; MRSA, pH 7.4, read-out: Average MIC, average of six MRSA isolates, pH 7.4)
0.5 µg/mL: MIC (MRSA isolates; [17]) | MIC (MRSA isolates; [18])
greater than 10: pH of solution [1]
4 µg/mL: MIC90 (MRSA isolates; [2]) | MBC (MRSA isolates; [6]) | MBC (MRSA isolates; [7]) | MBC (MRSA isolates; [8])
2 µg/mL: MBC (MRSA isolates; [15]) | MBC (MRSA isolates; MRSA, pH 6.5, read-out: Average MBC, average of six MRSA isolates, pH 6.5) | MBC (MRSA isolates; [3]) | MIC (MRSA isolates; [4]) | MBC (MRSA isolates; [5]) | MIC (MRSA isolates; [5]) | MIC (MRSA isolates; [6]) | MBC (MRSA isolates; MRSA, pH 7.4, TCH 1516, pH 7.4) | MIC (MRSA isolates; MRSA, pH 7.4, TCH 1516, pH 7.4)
0.83 µg/mL: MIC (MRSA isolates; MRSA, pH 6.5, read-out: Average MIC, average of six MRSA isolates, pH 6.5)
3.3 µg/mL: MBC (MRSA isolates; MRSA, pH 7.4, read-out: Average MBC, average of six MRSA isolates, pH 7.4)
6 µg/mL: MBC (MRSA isolates; [17]) | MBC (MRSA isolates; [4])

CCC[C@@H]1C[C@@H](C(=O)N[C@@H]([C@H]2O[C@H](SC)[C@H](O)[C@@H](O)[C@H]2O)[C@H](C)Cl)N(C)C1 [Clindamycin, clindamycin, reference compound]
256 fold: increase in MIC (MRSA isolate TCH 1516; serial passage, after 17 days)
32 µg/mL: MIC (MRSA isolate TCH 1516; Staphylococcus aureus, MRSA, 408 h, read-out: MIC after serial passage)
> 32 µg/mL: MBC (MRSA isolates; 39 evaluated MRSA isolates, CLSI broth microdilution, read-out: MBC90) | MIC90 (MRSA isolates; 39 evaluated MRSA isolates, CLSI broth microdilution, read-out: MIC90)

— paper PMC10913730, “Antimicrobial activity of a natural compound and analogs against multi-drug-resistant Gram-positive pathogens” (Microbiology Spectrum, 2024)
